The record followed here is patent US20110045103A1, “METHODS FOR TREATING AIDS” (priority 2009, published 2011).

The subject of data set [1] is human immunodeficiency virus (HIV) Type I, strain HTLV-IIIB. In words: Virucidal efficacy assay: virus suspension exposed to test composition, then titered by infectivity (CPE) in MT-2 cells. In kind it is cell-based, HIV Type 1. As to the method:
Composition Tested: A 20 mL vial of ammonium chloride (100 mEq/5 mL) was dissolved into a 1 liter bag of 0.9% sodium chloride injection USP (9 g/L sodium chloride; osmolarity of 308 mOsmol/L; 154 mEq/L sodium; 154 mEq/L chloride). The contents of the bag were transferred to a sterile glass bottle. The solution was equilibrated to room temperature prior to use.
Virus: human immunodeficiency virus (HIV) Type I, strain HTLV-IIIB, was obtained from Advanced Biotechnologies, Inc., Columbia, Md. Stock virus was prepared by collecting the supernatant culture fluid from infected culture cells. The cells were disrupted and cell debris removed by centrifugation at approximately 2200 RPM for ten minutes at room temperature. The supernatant was removed, aliquoted, and the high titer stock virus was stored at ≦−70° C. until the day of use. On the day of use, an aliquot of stock virus was removed, thawed, and maintained at a refrigerated temperature until used in the assay. The stock virus culture was adjusted to contain 5% fetal bovine serum as the organic soil lead.
(§1) Test Cultures: MT-2 cells (human T-cell leukemia cells) were obtained through the AIDS Research and Reference Reagent Program, Division of AIDS, NIAID, NIH from Dr. Douglas Richman. Cultures were maintained and used in suspension in tissue culture labware at 36-38° C. in a humidified atmosphere of 5-7% CO2.
Test Medium: The test medium used for the assay was RPMI 1640 supplemented with 10% (v/v) heat-inactivated fetal bovine serum (FBS). The medium was also supplemented with 2.0 mM L-glutamine and 50 μg/mL gentamicin.
Treatment of Virus Suspension: A 1.80 mL aliquot of the test substance was dispensed into a sterile tube and mixed with a 0.2 mL aliquot of the stock virus suspension. The mixture was vortex mixed for 10 seconds and held for the remainder of the specified exposure time at 37.0° C. The exposure time was ten minutes. Following the exposure time, a 0.1 mL aliquot was removed from the tube and the mixture was immediately titered by 10-fold serial dilution (0.1 mL+0.9 mL test medium) and assayed for the presence of virus in MT-2 cells. To decrease the test substance cytotoxicity, the first dilution was made in FBS with the remaining dilutions in test medium.
Treatment of Virus Control: A 0.2 mL aliquot of stock virus suspension was exposed to a 1.80 mL aliquot of test medium, in lieu of test substance, and treated as previously described. Following the exposure time, a 0.1 mL aliquot was removed from the tube and the mixture was immediately titered by 10-fold serial dilution (0.1 mL+0.9 mL test medium) and assayed for the presence of virus in MT-2 cells. All controls employed the FBS neutralizer as described in the Treatment of Virus Suspension section above. The virus control titer was used as a baseline to compare the percent and log reductions of the test parameter following exposure to the test substance.
Cells in the multiwall culture dishes were inoculated in quadruplicate with 0.2 mL of the dilutions prepared from test and control groups. Uninfected indicator cell cultures (cell controls) were inoculated with test medium alone. The cultures were incubated at 36-38° C. in a humidified atmosphere of 5-7% CO2 in sterile disposable cell culture labware. The cultures were scored periodically for eight days for the absence or presence of CPE, cytotoxicity, and for viability.
(§2) Data analysis: Viral and cytotoxicity titers are expressed as −log 10 of the 50 percent titration endpoint for infectivity (TCID50) or cytotoxicity (TCD50), respectively, as calculated by the method of Spearman Karber: […]
Calculation of Percent (%) Reduction:
Calculation of Log Reduction:
TCID50 of the virus control—TCID50 of the test substance=Log reduction Study Acceptance Criteria: A valid test required the following: (1) that stock virus be recovered from the virus control; (2) that the cell controls be negative for virus; and (3) that negative cultures are viable.

Data set [2] concerns MT-2 cells (human T-cell leukemia cells). In words: Cytotoxicity control of the virucidal assay. In kind it is cell-based. The settings on record: ten minute exposure. How it is done: as §1
Cytotoxicity Control: A 1.80 mL aliquot of the test substance was mixed with a 0.2 mL aliquot of test medium containing the BSA organic soil load, in lieu of virus, and treated as previously described. The cytotoxicity control was held for the ten minute exposure time. […] The cytotoxicity of the MT-2 cell cultures was scored at the same time as virus-test substance and virus control cultures. Cytotoxicity was graded on the basis of cell viability as determined microscopically. […]
Cells in the multiwall culture dishes were inoculated in quadruplicate with 0.2 mL of the dilutions prepared from test and control groups. […] The cultures were scored periodically for eight days for the absence or presence of CPE, cytotoxicity, and for viability.
as §2

Where [3] appears, read: ten minute exposure at 37° C., 5% fetal bovine serum, compared to virus control.

Bounds are passed on as bounds.

Consider `Cl.N` [Ammonium Chloride, ammonium chloride], for which the “Presence of test virus, four cultures” value in data set [1] (dilution 10^-2, after ten minute exposure) is “+ + + +”; in data set [1] (dilution 10^-3, after ten minute exposure), “+ + + +”; in data set [1] (dilution 10^-4, after ten minute exposure), “+ + + +”. The “Log10 Reduction in viral titer” value in data set [1] (setting [3]) was found to be 1.0 Log10. Besides, the “Percent Reduction in viral titer” value in data set [1] (setting [3]) was determined as 90.0%; in data set [1] (ten minute exposure at 37° C., 5% fetal bovine serum, compared to virus control, listed as ammonium chloride), 90%. In data set [1] (ten minute exposure at 37° C., virus control titer 6.0 log 10), the “test virus infectivity detected in the virus-test substance mixture” value was found to be 5.0 log 10. Besides, in data set [2], the “Test substance cytotoxicity (not observed at any dilution tested)” value is not above 1.5 log 10.
